For assay [1], the target named is T1, Rat recombinant PDE10A (rPDE10A2) (Rattus norvegicus, UniProt Q9QYJ6).
T1 construct: inferred from the Ni metal chelate purification; made in house; host or cells: Sf9 insect cells (baculovirus)
T1 sequence (Q9QYJ6 1-794): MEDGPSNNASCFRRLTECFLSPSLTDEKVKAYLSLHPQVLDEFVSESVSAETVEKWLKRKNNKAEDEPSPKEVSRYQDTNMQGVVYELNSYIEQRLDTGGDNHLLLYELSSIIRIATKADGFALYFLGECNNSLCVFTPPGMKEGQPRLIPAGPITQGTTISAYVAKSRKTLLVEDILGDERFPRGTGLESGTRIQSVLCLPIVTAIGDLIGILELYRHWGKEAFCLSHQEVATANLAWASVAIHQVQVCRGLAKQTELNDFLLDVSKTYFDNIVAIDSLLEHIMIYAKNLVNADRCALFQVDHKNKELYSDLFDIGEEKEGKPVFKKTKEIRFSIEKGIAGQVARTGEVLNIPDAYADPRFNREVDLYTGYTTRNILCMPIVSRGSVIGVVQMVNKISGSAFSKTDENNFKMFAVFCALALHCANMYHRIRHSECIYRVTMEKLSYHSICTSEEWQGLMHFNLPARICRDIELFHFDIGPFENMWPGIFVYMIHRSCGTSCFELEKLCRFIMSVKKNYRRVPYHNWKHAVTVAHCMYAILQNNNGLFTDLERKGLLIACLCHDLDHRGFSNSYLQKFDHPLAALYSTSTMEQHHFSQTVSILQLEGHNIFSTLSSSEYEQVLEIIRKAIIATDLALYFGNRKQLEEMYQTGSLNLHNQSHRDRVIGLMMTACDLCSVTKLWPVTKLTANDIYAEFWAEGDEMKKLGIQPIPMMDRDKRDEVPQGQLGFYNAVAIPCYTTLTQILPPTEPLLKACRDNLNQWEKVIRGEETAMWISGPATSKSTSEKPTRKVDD
Description: In vitro assay PDE10A (SPA, 3H-cAMP). The assay is classed as biochemical. Summed up: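 Rat PDE10A2 expressed in Sf9 cells and Ni-purified; incubated with 60 nM cAMP plus 0.008 μCi 3H-cAMP in 50 mM Tris pH 7.8, 8.3 mM MgCl2, 1.7 mM EGTA for 60 min at room temperature. Product quantified by scintillation proximity counting; final DMSO 1%.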

In assay [2] the test system is apomorphine-induced stereotypy in rats. Briefly: Apomorphine-induced stereotypy in rats (APO). The assay is classed as in vivo. The conditions noted are these: Rattus norvegicus. Here is the method:
Apomorphine (1.0 mg/kg, i.v.)-induced stereotypy (compulsive sniffing, licking, chewing) was scored every 5 min over the first hour after injection of apomorphine, following a 1 hour interval pre-treatment with the test compound. The score system was: (3) pronounced, (2) moderate, (1) slight, and (0) absent.

The target of assay [3] is other members of the PDE family (Homo sapiens, UniProt O00408). Briefly: In vitro PDE selectivity assay (SPA), other members of the PDE family (protocols in Table A). The class given is biochemical. The conditions noted are these: hPDE2A; read-out: PDE 2A (expressed as pIC50) (converted). On the procedure: Rat recombinant PDE10A (rPDE10A2) was expressed in Sf9 cells using a recombinant rPDE10A baculovirus construct. Cells were harvested after 48 h of infection and the rPDE10A protein was purified by metal chelate chromatography on Ni-sepharose 6FF. Tested compounds were dissolved and diluted in 100% DMSO to a concentration 100 fold of the final concentration in the assay. Compound dilutions (0.4 μl) were added in 384 well plates to 20 μl of incubation buffer (50 mM Tris pH 7.8, 8.3 mM MgCl2, 1.7 mM EGTA). 10 μl of rPDE10A enzyme in incubation buffer was added and the reaction was started by addition of 10 μl substrate to a final concentration of 60 nM cAMP and 0.008 μCi ^3H-cAMP. The reaction was incubated for 60 minutes at room temperature. After incubation, the reaction was stopped with 20 μl of stop solution consisting of 17.8 mg/ml PDE SPA (scintillation proximity assay) beads. After sedimentation of the beads during 30 minutes the radioactivity was measured in a Perkin Elmer Topcount scintillation counter and results were expressed as cpm. For blanc values the enzyme was omitted from the reaction and replaced by incubation buffer. Control values were obtained by addition of a final concentration of 1% DMSO instead of compound. The same assay principle is applied for the measurement of the affinity of the compound for other members of the PDE family with appropriate modifications in incubation buffer, substrate concentration, incubation time and stop solution. An overview of the different protocols is presented in table A. A best fit curve is fitted by a minimum sum of squares method to the plot of % of control value substracted with blanc value versus compound concentration and the half maximal inhibitory concentration (IC50) value is derived from this curve.
Chain of other members of the PDE family (O00408 whole entry): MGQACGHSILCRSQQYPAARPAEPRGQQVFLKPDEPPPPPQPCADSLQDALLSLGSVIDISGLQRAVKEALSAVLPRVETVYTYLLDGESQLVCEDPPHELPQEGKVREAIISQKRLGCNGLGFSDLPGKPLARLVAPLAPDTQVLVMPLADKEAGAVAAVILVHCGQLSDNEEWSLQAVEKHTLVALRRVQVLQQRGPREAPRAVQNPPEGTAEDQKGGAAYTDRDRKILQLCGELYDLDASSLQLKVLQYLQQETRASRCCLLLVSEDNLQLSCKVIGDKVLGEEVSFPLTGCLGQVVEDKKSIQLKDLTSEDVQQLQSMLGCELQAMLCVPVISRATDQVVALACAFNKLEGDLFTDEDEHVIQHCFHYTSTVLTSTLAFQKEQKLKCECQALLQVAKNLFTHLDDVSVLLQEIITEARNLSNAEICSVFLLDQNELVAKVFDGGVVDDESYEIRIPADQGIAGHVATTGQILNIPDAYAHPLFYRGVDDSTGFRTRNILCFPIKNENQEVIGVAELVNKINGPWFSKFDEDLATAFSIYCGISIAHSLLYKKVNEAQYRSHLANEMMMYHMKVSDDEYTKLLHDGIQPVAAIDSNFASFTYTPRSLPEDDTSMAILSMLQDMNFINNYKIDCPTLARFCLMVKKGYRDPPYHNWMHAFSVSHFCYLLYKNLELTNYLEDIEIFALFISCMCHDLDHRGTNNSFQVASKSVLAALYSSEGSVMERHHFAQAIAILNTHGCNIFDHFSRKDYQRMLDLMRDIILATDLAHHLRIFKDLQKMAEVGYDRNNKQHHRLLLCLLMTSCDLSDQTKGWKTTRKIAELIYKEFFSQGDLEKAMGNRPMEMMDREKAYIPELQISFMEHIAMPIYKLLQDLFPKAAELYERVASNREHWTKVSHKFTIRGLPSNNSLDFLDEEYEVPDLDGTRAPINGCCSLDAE
The compounds of the invention are generally selective for PDE10 compared to other PDEs and there are a few that also have affinity for PDE1B1, 4D3 and 5A3.

Assay [4] has as its target T2, PDE10 (Rattus norvegicus, UniProt Q9QYJ6).
T2 construct: from tissue; host or cells: rat brain sections, striatum (in vivo dosing, ex vivo autoradiography)
T2 sequence (Q9QYJ6 1-794): T1 sequence (Q9QYJ6 1-794)
Briefly: PDE10 occupancy ([3H]-MP-10, striatum). The assay is classed as in vivo. The conditions noted are these: for receptor occupancy at 10 mg/kg: rat, single dose 10 mg/kg. Here is the method: Dose-response or single dose experiments were performed to measure PDE10 occupancy 1 hour after subcutaneous (s.c.) or oral (p.o.) administration. Male Wistar rats (200 g) were treated by s.c. or p.o. administration of various PDE10 inhibitors. The PDE10 radioligand [^3H]-MP-10 (10 μCi/animal) was injected intravenously (i.v.) 30 minutes before sacrifice. Brains were immediately removed from the skull and rapidly frozen. Twenty μm-thick brain sections were cut using a cryostat-microtome, thaw-mounted on microscope slides and loaded in a β-imager to quantify PDE10 occupancy in the striatum.

[5] abbreviates: Table 4 in vitro selectivity, read-out: PDE 10A2 (expressed as pIC50) (converted).
Setting [6] is: pIC50 corresponds to the −log IC50 expressed in mol/L, read-out: PDE10A2 pIC50 (converted).
The mark [7] stands for this setting: po, * compound not soluble, tested orally as a suspension, ≧: active in 30% of the animals at the indicated dose, ≦: active in 60%.
[8] abbreviates: oral, read-out: SD po % occupancy at 10 mg/kg.
[9] abbreviates: po, n.d.: found not active at threshold dose 2.5 mg/kg or 10 mg/kg (a), * not soluble, tested orally as a suspension.
Where [10] appears, read: sc, subcutaneous, read-out: SD sc % occupancy at 10 mg/kg.
Setting [11] is: n.d.: found not active at threshold dose 2.5 mg/kg or 10 mg/kg (a), not further tested.
Setting [12] is: dose at which 50% of the tested animals show the effect, ≧: active in 30% of the animals at the indicated dose, ≦: active in 60%.

Results on 15 molecules are retold here after patent US20120220581A1, “IMIDAZO[1,2-b]PYRIDAZINE DERIVATIVES AND THEIR USE AS PDE10 INHIBITORS” (Janssen-Cilag, S.A., priority 2009, published 2012).

Structures can show the parent of a compound that is named as a salt. Where two headings read alike, the source gives them in different places.

The ED50 is the dose at which the effect has come halfway, by size or by number of responders. Read a low ED50 as greater potency. Turning to `COCCOc1ccc(-c2c(C3CC3)nc3c(-c4ccncc4)cc(C)nn23)cn1` [compound 72, 2-cyclopropyl-3-[6-(2-methoxyethoxy)-3-pyridinyl]-6-methyl-8-(4-pyridinyl)-imidazo[1,2-b]pyridazine], the figures for the IC50 in assay [1] (setting [5]), in assay [1] (setting [6]) and in assay [3] were 0.123 µM, 0.123 µM and 1.05 µM, respectively. The molecule further had an ED50 in assay [2] (setting [7]) not below 2.5 mg/kg.
Turning to `FC(F)(F)Cn1cc(-c2c(C3CC3)nc3c(N4CCOCC4)ccnn23)cn1` [compound 138, 2-cyclopropyl-8-(4-morpholinyl)-3-[1-(2,2,2-trifluoroethyl)-1H-pyrazol-4-yl]-imidazo[1,2-b]pyridazine], the receptor occupancy at 10 mg/kg in assay [4] (setting [8]) turned out to be 11%. Moreover, in assay [1] (setting [6]), the IC50 is 0.0398 µM. The 50% effective dose (ED50) in assay [2] (setting [9]) is more than 10 mg/kg.
For `COCCn1cc(-c2c(C)nc3c(-c4ccncc4)ccnn23)cn1` [compound 114, 3-[1-(2-methoxyethyl)-1H-pyrazol-4-yl]-2-methyl-8-(4-pyridinyl)-imidazo[1,2-b]pyridazine], the receptor occupancy at 10 mg/kg in assay [4] (setting [10]) amounted to 72%. The IC50 in assay [1] (setting [6]) is 0.0525 µM. Also, the ED50 in assay [2] (setting [11]) is more than 2.5 mg/kg.
With `Cc1nc2c(N3CCOCC3)ccnn2c1-c1ccc(OCC(F)(F)F)nc1` [compound 62, 2-methyl-8-(4-morpholinyl)-3-[6-(2,2,2-trifluoroethoxy)-3-pyridinyl]-imidazo[1,2-b]pyridazine], the receptor occupancy at 10 mg/kg in assay [4] (setting [8]) came to 38%. Further, in assay [1] (setting [6]), the IC50 is 0.257 µM. This molecule displayed an ED50 in assay [2] (setting [9]) of more than 2.5 mg/kg.
Regarding `Cc1nc2c(N3CCOCC3)ccnn2c1-c1ccc(OC(C)C)nc1` [compound 66, 2-methyl-3-[6-(1-methylethoxy)-3-pyridinyl]-8-(4-morpholinyl)-imidazo[1,2-b]pyridazine], the receptor occupancy at 10 mg/kg in assay [4] (setting [10]) is 29%. Further, the IC50 in assay [1] (setting [6]) was 0.178 µM. Moreover, the ED50 in assay [2] (setting [11]) is more than 10 mg/kg.
Turning to `COCCn1cc(-c2c(C(C)C)nc3c(-c4ccncc4)ccnn23)cn1` [compound 121, 3-[1-(2-methoxyethyl)-1H-pyrazol-4-yl]-2-(1-methylethyl)-8-(4-pyridinyl)-imidazo[1,2-b]pyridazine], the receptor occupancy at 10 mg/kg in assay [4] (setting [10]) turned out to be 0%. For the same molecule, the IC50 in assay [1] (setting [6]) is 0.234 µM. Also, the ED50 in assay [2] (setting [11]) is more than 10 mg/kg.
As for `Cc1cc(-c2ccncc2)c2nc(C3CC3)c(-c3ccc(N4CCOCC4)nc3)n2n1` [compound 71, 2-cyclopropyl-6-methyl-3-[6-(4-morpholinyl)-3-pyridinyl]-8-(4-pyridinyl)-imidazo[1,2-b]pyridazine], the IC50 in assay [1] (setting [5]) was 0.0832 µM; in assay [1] (setting [6]), 0.0832 µM; in assay [3], 2.29 µM. The same molecule displayed an ED50 in assay [2] (setting [7]) not below 2.5 mg/kg.
For the molecule `Cc1nc2c(N3CCOCC3)ccnn2c1-c1cnn(CC(F)(F)F)c1` [compound 137, 2-methyl-8-(4-morpholinyl)-3-[1-(2,2,2-trifluoroethyl)-1H-pyrazol-4-yl]-imidazo[1,2-b]pyridazine], the receptor occupancy at 10 mg/kg in assay [4] (setting [8]) is 12%. Further, the IC50 in assay [1] (setting [6]) was 0.0257 µM. This molecule returned an ED50 in assay [2] (setting [11]) of more than 2.5 mg/kg.
For `Cc1cc(N2CCOCC2)c2nc(C)c(-c3ccc(N4CCOCC4)nc3)n2n1` [compound 68, 2,6-dimethyl-8-(4-morpholinyl)-3-[6-(4-morpholinyl)-3-pyridinyl]-imidazo[1,2-b]pyridazine], the IC50 is 0.158 µM in assay [1] (setting [5]), 0.158 µM in assay [1] (setting [6]) and more than 10 µM in assay [3]. Moreover, the ED50 in assay [2] (setting [7]) was not below 2.5 mg/kg.
As to `COC(C)(C)Cc1ccc(-c2c(C3CC3)nc3c(-c4ccncc4)ccnn23)cn1` [compound 50, 2-cyclopropyl-3-[6-(2-methoxy-2-methylpropyl)-3-pyridinyl]-8-(4-pyridinyl)-imidazo[1,2-b]pyridazine], the values for the IC50 in assay [1] (setting [5]), in assay [1] (setting [6]) and in assay [3] were 0.0145 µM, 0.0145 µM and 6.92 µM, respectively. In addition, the 50% effect level in assay [2] (setting [12]) (ED50) was put at a dose of 0.8 mg/kg.
In the case of `COCCn1cc(-c2c(C)nc3c(N4CCCC4)ccnn23)cn1` [compound 136, 3-[1-(2-methoxyethyl)-1H-pyrazol-4-yl]-2-methyl-8-(1-pyrrolidinyl)-imidazo[1,2-b]pyridazine], the IC50 in assay [1] (setting [5]) was 0.525 µM; in assay [1] (setting [6]), 0.525 µM; in assay [3] it was more than 10 µM.
In the case of `CC(C)(O)Cc1ccc(-c2c(C3CC3)nc3c(N4CCOCC4)ccnn23)cn1` [compound 54, 5-[2-cyclopropyl-8-(4-morpholinyl)imidazo[1,2-b]pyridazin-3-yl]-α,α-dimethyl-2-pyridineethanol], the values for the IC50 in assay [1] (setting [5]), in assay [1] (setting [6]) and in assay [3] were 0.0209 µM, 0.0209 µM and more than 10 µM, respectively. In assay [2] (setting [12]), this molecule displayed an ED50 of 1.2 mg/kg.
Turning to `Cc1nc2c(N3CCOCC3)cc(C3CC3)nn2c1-c1ccc(N2CCOCC2)nc1` [compound 94, 6-cyclopropyl-2-methyl-8-(4-morpholinyl)-3-[6-(4-morpholinyl)-3-pyridinyl]-imidazo[1,2-b]pyridazine], the IC50 in assay [1] (setting [5]) is 0.38 µM; in assay [1] (setting [6]) it was 0.38 µM; in assay [3] it was more than 10 µM.
Take `c1cc(N2CCOCC2)c2ncc(-c3ccc(C4CC4)nc3)n2n1` [compound 112, 3-(6-cyclopropyl-3-pyridinyl)-8-(4-morpholinyl)-imidazo[1,2-b]pyridazine]: the IC50 in assay [1] (setting [5]) is 0.427 µM; in assay [1] (setting [6]) it was 0.427 µM; in assay [3] it was 8.13 µM.
Take `COCCOc1ccc(-c2c(C)nc3c(-c4ccncc4)ccnn23)cn1` [compound 21a, 3-[6-(2-methoxyethoxy)-3-pyridinyl]-2-methyl-8-(4-pyridinyl)-imidazo[1,2-b]pyridazine hydrochloride salt]: the “PDE10 in vivo occupancy ED50 po” value in assay [4] (dose response, oral administration) was 14 mg/kg. Further, the “PDE10 in vivo occupancy ED50 sc” value in assay [4] (dose response, subcutaneous administration) turned out to be 2.6 mg/kg. In assay [1] (setting [6]), the IC50 is 0.151 µM.
